{
  "source": "paper PMC8835363",
  "about": "“Arachidin-1, a Prenylated Stilbenoid from Peanut, Induces Apoptosis in Triple-Negative Breast Cancer Cells” (International Journal of Molecular Sciences, 2022)",
  "key": {"[1]": {"system": "MDA-MB-231 cells", "assay": "RealTime-Glo MT cell viability (cytotoxicity) assay", "format": "cell-based, human", "settings": "MDA-MB-231; for IC50: Homo sapiens", "method": "(§1) The cytotoxicity of RES, A-1, and A-3 was measured using the RealTime-Glo^TM MT Cell Viability Assay (Promega, Madison, WI, USA). The cells (10,000 cells/well) were seeded into 96-well plates. […] Cells with 0.1% DMSO (ATCC; Manassas, VA, USA) were included as a control. Luminescence was measured every 12 h for 72 total hours in a Cytation^TM 5 (BioTek, Winooski, VT, USA) plate reader. All experiments were performed in triplicates."}, "[2]": {"system": "MDA-MB-436 cells", "assay": "RealTime-Glo MT cell viability (cytotoxicity) assay", "format": "cell-based, human", "settings": "MDA-MB-436", "method": "as §1"}, "[3]": {"system": "human leukemia HL-60 cell line", "parameters": "method as in PMID 21067217", "settings": "72 h treatment; cited from earlier work"}, "[4]": {"system": "UDP-glucuronosyltransferases", "settings": "in vitro metabolism; cited from earlier work"}, "[5]": {"system": "MCF-7 cells", "parameters": "method as in PMID 32721999, PMID 33643572", "settings": "cited from earlier work"}, "[6]": {"system": "MDA-MB-231", "parameters": "method as in PMID 32721999, PMID 33643572", "settings": "24 h treatment, MTT assay; cited from earlier work"}, "[7]": {"settings": "MDA-MB-231, 24 h, 24 h, in Figure 2 panels"}, "[8]": {"settings": "MDA-MB-231, 24 h, 24 h of treatment"}, "[9]": {"settings": "MDA-MB-231, 48 h, 48 h of treatment"}, "[10]": {"settings": "MDA-MB-231, 72 h, 72 h of treatment"}, "[11]": {"settings": "Homo sapiens, MDA-MB-436, 24 h, 24 h"}, "[12]": {"settings": "Homo sapiens, MDA-MB-436, 24 h, 24 h, in Figure 2 panels"}, "[13]": {"settings": "Homo sapiens, MDA-MB-436, 48 h, 48 h"}, "[14]": {"settings": "Homo sapiens, MDA-MB-436, 72 h, 72 h"}},
  "note": "Like-named read-outs stand apart in the source and are kept apart here.",
  "data": [
    {"smiles": "CC(C)/C=C/c1c(O)cc(/C=C/c2ccc(O)cc2)cc1O", "note": "[A-3, arachidin-3]", "values": [
      {"measurement": "IC50", "setting": "[1]; [7]", "result": 9.51, "unit": "µM"},
      {"measurement": "IC50", "setting": "[1]; [8]", "result": 18.7, "unit": "µM"},
      {"measurement": "IC50", "setting": "[1]; [9]", "result": 16.2, "unit": "µM"},
      {"measurement": "IC50", "setting": "[1]; [10]", "result": 18.7, "unit": "µM"},
      {"measurement": "growth inhibition at low concentrations", "setting": "[1]; 0.01-10 µM, 72 h", "result": "no growth inhibition below 10 µM"},
      {"measurement": "IC50", "setting": "[2]; [11]", "result": 11, "unit": "µM"},
      {"measurement": "IC50", "setting": "[2]; [12]", "result": 10.9, "unit": "µM"},
      {"measurement": "IC50", "setting": "[2]; [13]", "result": 16.7, "unit": "µM"},
      {"measurement": "IC50", "setting": "[2]; [14]", "result": 19.8, "unit": "µM"},
      {"measurement": "growth inhibition at low concentrations", "setting": "[2]; 0.01-10 µM, 72 h", "result": "no growth inhibition below 10 µM"},
      {"measurement": "IC50", "setting": "[2]; 72 h", "result": 19.8, "unit": "µM"},
      {"measurement": "IC50", "setting": "[3]", "result": 18.9, "unit": "µM"},
      {"measurement": "glucuronidated products compared to non-prenylated analogs piceatannol and RES", "setting": "[4]", "result": "lower glucuronidated products"}
    ]},
    {"smiles": "Oc1ccc(/C=C/c2cc(O)cc(O)c2)cc1", "note": "[RES, resveratrol, reference compound]", "values": [
      {"measurement": "IC50", "setting": "[5]; 24 h treatment", "result": 131, "unit": "µM"},
      {"measurement": "IC50", "setting": "[5]; 48 h treatment", "result": 83.9, "unit": "µM"},
      {"measurement": "IC50", "setting": "[1]; [7]", "result": 6.27, "unit": "µM"},
      {"measurement": "IC50", "setting": "[1]; [8]", "result": 32.1, "unit": "µM"},
      {"measurement": "IC50", "setting": "[1]; MDA-MB-231, 48 h, 48 h, in Figure 2 panels", "result": 11.5, "unit": "µM"},
      {"measurement": "IC50", "setting": "[1]; [9]", "result": 6.54, "unit": "µM"},
      {"measurement": "IC50", "setting": "[1]; [10]", "result": 10.8, "unit": "µM"},
      {"measurement": "IC50", "setting": "[2]; [11]", "result": 37.5, "unit": "µM"},
      {"measurement": "IC50", "setting": "[2]; [12]", "result": 9.16, "unit": "µM"},
      {"measurement": "IC50", "setting": "[2]; [13]", "result": 23.7, "unit": "µM"},
      {"measurement": "IC50", "setting": "[2]; [14]", "result": 15.7, "unit": "µM"},
      {"measurement": "IC50", "setting": "[3]", "result": 17.6, "unit": "µM"},
      {"measurement": "IC50", "setting": "[6]", "result": 144, "unit": "µM"}
    ]}
  ]
}
